Results published in US20220249525A1, “Fatty Acid Compounds for Prevention and Treatment of Neurodegenerative Disorders” (T OMEGA AS, priority 2019, published 2022).

How the values were obtained:
[1] = test system: HCC827 cells; test: Mitochondria respiration assay (OCR, extracellular flux) in HCC827 cells; type: cell-based
Procedure: (§1) Non-small cell lung cancer cells, HCC827 (ATCC) were cultured in RPMI-1640 Glutamax medium (Sigma-Aldrich St. Louis, Mo., USA), under conventional culture conditions. Media was supplemented with 10% Fetal Bovine Serum (FBS), 1% glutamine and 1% streptomycin/penicillin (Sigma-Aldrich). HeLaNRF1/c4 reporter cells were cultured in Dulbecco's Modified Eagle's Medium (DMEM) supplemented with 10% FBS, 2 mM L-Glutamine, 100 u/ml penicillin/streptomycin (Sigma-Aldrich,). Incubation was done at 37° C. in 5% CO2.
Mitochondria function was analyzed by measuring oxygen consumption rate (OCR) by extracellular flux analysis in a Seahorse XFe96 instrument (Agilent Seahorse XF Technologies). The measurements were performed in DADA basic media without phenol red, supplemented with L-glutamine (2 mM), pyruvate (2 mM), and sodium chloride, NaCl (32 mM) (Sigma-Aldrich). Respiratory rates were measured following sequential additions of glucose (10 mM), oligomycin, carbonyl cyanide m-chlorophenyl hydrazine (CCCP) and a mixture of rotenone (1 μM) and antimycin A (1 μM). Before carrying out the measurements for each cell model, optimizations were done for; cell number, CCCP, and oligomycin concentrations. For the HCC 827 cell model optimal conditions were; 30,000 cells/well, 0.5 μM CCCP, and 3 μM Oligomycin; and in HeLaNRF1/c4 reporter cell model; 20,000 cells/well, 1 μM CCCP and 3 μM Oligomycin. The OCR measured initially (before any additions) represented the rate ‘basal respiration.’ The addition of ATP synthase inhibitor oligomycin provided oxygen consumption independent of ATP production (‘leak activity’). Maximal respiration (also referred to as ‘respiratory capacity’) was measured upon addition of the uncoupler CCCP. […] After the extracellular flux analysis the analysis plates were washed with Phosphate Buffered Saline (PBS) and frozen at −80° C. The BCA assay (Pierce BCA protein assay kit, Thermo Fisher Scientific, Waltham, Mass. USA) was employed to measure the protein content in the wells. To evaluate the effects of the different treatments, the respiratory rates from compound-treated wells were normalized to protein content, and calculated as percentage of the average respiratory rate of the DMSO-treated control wells. All treatments were performed with 6-8 replicate wells.

[2] = test system: HeLaNRF1/c4 reporter cells; test: Resazurin conversion assay in HeLaNRF1/c4 reporter cells; type: cell-based; conditions: test compounds 30 μM and 60 μM, long treatment
Procedure: as §1
Cell viability/proliferation was determined by the resazurin conversion assay. A total of 4000 cells were seeded in each of the 96-well plates in 100 μl of medium. After 3 hours of incubation, 100 μl of fresh medium with respective concentration of the desired compound or controls were added. Resazurin solution (Sigma-Aldrich) was added (10%, v/v in PBS) after 1 or 3 day treatment, followed by 3 hour incubation at 37° C. and 5% CO2. Resazurin fluorescence (excitation, 540 nm; emission, 590 nm) was measured and measurements were corrected for background signals. […] Relative viability was calculated from percent fluorescence relative to DMSO-treated control wells.
In order to investigate if some of the compounds induce metabolic adaptations involving mitochondrial biogenesis, we employed the HeLaNRF1/c4 reporter cells in which activation of the transcription factor NRF1 triggers expression of GFP. Since adaptations of mitochondrial biogenesis are known to require some days to develop, we used a relatively low dosage (30 μM and 60 μM) of the compounds, to allow longer treatment period compared to the previous short term experiments.

`CCCCCCCCCCCCCCNCC(=O)O` [N-TTA, N-tetradecylglycine] was tested, and the “leak respiration after oligomycin” value ([1]; 100 μM TTA, 200 μM 2-triple TTA, 30 μM TDG) was “significantly increased”, the “basal respiratory rate (OCR)” value ([1]; compared to control) was “decreased in a dose-dependent manner” and the “leak respiration after oligomycin” value ([1]; higher concentrations) was “reduced leak respiration”. The resazurin conversion [2] was “dose-dependent reduction”.
